Reference: patent US6552014B2, “Methods of inhibiting platelet activation with selective serotonin reuptake inhibitors” (HeartDrug Research, L.L.C., priority 1999, dated 2003)

Assays:
Assay type in all cases: cell-based, human
GP IIb/IIIa = test: Whole blood flow cytometry; conditions: for GP IIb/IIIa (mean) log fluorescence intensity / GP IIb/IIIa (peak) log fluorescence intensity: Whole Blood; for GPIIb/IIIa expression (FIG. 1), in words: sertraline 18.1, 44.7 or 85.3 ng/ml, NDMS 31.1, 64.1, 143.0 ng/ml; for GPIIb/IIIa expression (FIG. 7), in words: whole blood, post-coronary angioplasty patient, increasing concentrations
From the text: For ex vivo assessment of the SSRIs effect on a PAM, a level of a PAM can be assessed by flow cytometry by first obtaining a sample that comprises platelets and then contacting the sample with a platelet activation agonist, such as phorbol myristate acetate (PMA), ADP (adenosine diphosphate), thrombin, collagen, and/or TRAP (thrombin receptor activating peptide), under conditions suitable for activation of platelets in the sample. The sample is in contact with the agonist preferably for a period of time effective to maximally activate the platelets. […] Then one contacts or stains the samples with a composition that comprises an anti-PAM antibody e.g., having a fluorescent label, preferably in an amount in excess of that required to bind the PAM expressed on the platelets, under conditions suitable for the formation of labeled complexes between the anti-PAM antibody and activated platelets. Then the formation of the complex in the sample is determined (detected or measured).
Four cc of blood was collected in a tube, containing 2 cc of acid-citrate-dextrose (ACD) (7.3 g citric acid, 22.0 g sodium citrate×2H2O and 24.5 glucose in a total amount of 1000 mL distilled water) and mixed well. The buffer, TBS (10 mM Tris, 0.15 M NaCl, pH 7.4) and the following fluorescein isothiocyanate (FITC) conjugated monoclonal antibodies (PharMingen, San Diego, Calif. USA, and DAKO, Calif., USA) were removed from a refrigerator and allowed to warm at room temperature (RT): CD41 (IIb/IIIa), CD31 (PECAM-1), CD62p (P-selectin), CD51/61 (Vitronectin receptor). Six amber tubes (1.25 ml) were obtained and marked. One Eppendorf tube (1.5 ml) was labeled with “Dill WB”, Patient ID #, Initial and Date. The amber tubes and Eppendorf tube were placed in the rack. […] of TBS buffer was pipetted to the labeled Eppendorf tube. The patient's whole blood tube was inverted gently twice to mix. 50 μl of whole blood was pipetted to the “Dill WB” labeled Eppendorf tube. The Eppendorf tube was capped and the diluted whole blood was mixed by inverting the Eppendorf tube gently two times 50 μl of diluted whole blood was pipetted to each amber tube. 5 μl of appropriate antibody was pipetted to the bottom of the corresponding amber tube. The tubes were covered with aluminum foil and incubated at 4° C. for 30 minutes. After incubation, 400 μl of 2% buffered paraformaldehyde was added. To prepare 2% Paraformaldehyde:Dilute 1 part 10% paraformaldehyde with 4 parts TBS. This solution was stored at 4° C. for up to one week. The amber tubes were closed with a lid tightly and stored in a refrigerator at 4° C. until the flow cytometric analysis. The samples are analyzed on a Becton Dickinson FACScan flow cytometer. The instrument is set up to measure forward light scatter (FSC), and FITC fluorescence. All parameters are collected using four decade logarithmic amplification.
The data in table 1 was obtained using the methods described herein, and in particular, in Examples 1 and 2. The levels of various PAMs were assess from samples of human volunteers. […] Baseline levels of the PAMs were also obtained (without exposure to sertraline or NDMS).

platelets = test: Platelet aggregation in platelet rich plasma (ADP or collagen); conditions: for platelet aggregation in PRP (FIGS. 5 and 6), in words: post-coronary angioplasty patient, activated with ADP or collagen
Protocol: Trisodium citrate (3.8%) and whole blood is immediately mixed in a 1:9 ratio, and then centrifuged at 1200 g for 2.5 minutes, to obtain platelet-rich plasma (PRP), which is kept at room temperature for use within 1 hour for platelet aggregation studies. Platelet count is determined in each PRP sample with a Coulter Counter ZM (Coulter Co., Hialeah, Fla.). Platelet numbers are adjusted to 3.50×10^8/ml for aggregation with homologous platelet-poor plasma. PRP and whole blood aggregation tests are performed simultaneously. Whole blood is diluted 1.1 with the 0.5 ml PBS, and then swirled gently to mix . The cuvette with the stirring bar is placed in the incubation well and allowed to warm to 37° C. for 5 minutes. Then the sample are transferred to the assay well. An electrode is placed in the sample cuvette. Platelet aggregation is stimulated with 5 μM ADP, 1 μg/ml collagen, and 0.75 mM arachidonic acid. All agonists are obtained from Chronolog Corporation (Hawertown, Pa.). Platelet aggregation studies are performed using a Chrono-Log Whole Blood Lumi-Aggregometer (model 560 -Ca). Platelet aggregability are expressed as the percentage of light transmittance change from baseline using platelet-poor plasma as a reference at the end of recording time for plasma samples, or as a change in electrical impedance for whole blood samples. Aggregation curves are recorded for 4 minutes and analyzed according to internationally established standards using Aggrolinkg® software.

CPIa-IIa = test: Flow cytometry of platelet antigen expression, platelet rich plasma; conditions: PRP; healthy volunteers; desmethylsertraline 64.2 ng/ml
[1] = healthy volunteers, sertraline 18.1 ng/ml
[2] = healthy volunteers, sertraline 44.7 ng/ml
[3] = healthy volunteers, sertraline 85.3 ng/ml
[4] = post-angioplasty patient on aspirin, sertraline 18.1 ng/ml
[5] = post-angioplasty patient on aspirin, sertraline 44.7 ng/ml
[6] = post-angioplasty patient on aspirin, sertraline 85.3 ng/ml
[7] = whole blood from a healthy volunteer
[8] = healthy volunteers, desmethylsertraline 31.1 ng/ml
[9] = healthy volunteers, desmethylsertraline 64.2 ng/ml
[10] = healthy volunteers, desmethylsertraline 143 ng/ml
[11] = post-angioplasty patient on aspirin, desmethylsertraline 31.1 ng/ml
[12] = post-angioplasty patient on aspirin, desmethylsertraline 64.2 ng/ml
[13] = post-angioplasty patient on aspirin, desmethylsertraline 143 ng/ml

**Q.** For `CN[C@H]1CC[C@@H](c2ccc(Cl)c(Cl)c2)c2ccccc21` [sertraline], which “GP IIb/IIIa (mean) log fluorescence intensity” value (GP IIb/IIIa; [1]) is on record?
**A.** The value was 479.

**Q.** And the “GP IIb/IIIa (peak) log fluorescence intensity” value (GP IIb/IIIa; [1])?
**A.** The value was 418.

**Q.** What about the “GP IIb/IIIa (mean) log fluorescence intensity” value (GP IIb/IIIa; [2]) of the same molecule?
**A.** Its value is 476.

**Q.** What about the “GP IIb/IIIa (peak) log fluorescence intensity” value (GP IIb/IIIa; [2]) of the same molecule?
**A.** Its value is 437.

**Q.** What about the “GP IIb/IIIa (mean) log fluorescence intensity” value (GP IIb/IIIa; [3]) of the same molecule?
**A.** The value was 498.

**Q.** What about the “GP IIb/IIIa (peak) log fluorescence intensity” value (GP IIb/IIIa; [3]) of the same molecule?
**A.** The value was 437.

**Q.** And the “GP IIb/IIIa (mean) log fluorescence intensity” value (GP IIb/IIIa; [4])?
**A.** Its value is 252.

**Q.** What about the “GP IIb/IIIa (peak) log fluorescence intensity” value (GP IIb/IIIa; [4]) of the same molecule?
**A.** Its value is 266.

**Q.** What about the “GP IIb/IIIa (mean) log fluorescence intensity” value (GP IIb/IIIa; [5]) of the same molecule?
**A.** The value was 230.

**Q.** What about the “GP IIb/IIIa (peak) log fluorescence intensity” value (GP IIb/IIIa; [5]) of the same molecule?
**A.** The value was 244.

**Q.** What about the “GP IIb/IIIa (mean) log fluorescence intensity” value (GP IIb/IIIa; [6]) of the same molecule?
**A.** The value was 198.

**Q.** And the “GP IIb/IIIa (peak) log fluorescence intensity” value (GP IIb/IIIa; [6])?
**A.** Its value is 217.

**Q.** And the “GPIIb/IIIa expression (FIG. 1), in words” value (GP IIb/IIIa; [7])?
**A.** The value was “dose dependent decrease in the expression”.

**Q.** And the “GPIIb/IIIa expression (FIG. 7), in words” value (GP IIb/IIIa)?
**A.** The value was “striking decreases in expression”.

**Q.** What about the “percent of platelet aggregation (FIGS. 2 and 3), in words” value (platelets; PRP, healthy volunteer, induced with ADP or collagen, sertraline 18.1, 44.7 or 85.3 ng/ml) of the same molecule?
**A.** Its value is “decreases with increasing amounts of sertraline”.

**Q.** And the “platelet aggregation in PRP (FIGS. 5 and 6), in words” value (platelets; PRP)?
**A.** The value was “decrease in platelet aggregation”.

**Q.** What about the “ADP-, and collagen-induced platelet aggregation in plasma (in vitro), in words” value (platelets; healthy controls and patients with coronary artery disease, including those on aspirin) of the same molecule?
**A.** The value was “Dose-dependent inhibition”.

**Q.** Which results are given for `N[C@H]1CC[C@@H](c2ccc(Cl)c(Cl)c2)c2ccccc21` [Desmethyl sertraline, N-desmethylsertraline]?
**A.** GP IIb/IIIa (mean) log fluorescence intensity (GP IIb/IIIa; [8]): 346; GP IIb/IIIa (peak) log fluorescence intensity (GP IIb/IIIa; [8]): 340; GP IIb/IIIa (mean) log fluorescence intensity (GP IIb/IIIa; [9]): 403; GP IIb/IIIa (peak) log fluorescence intensity (GP IIb/IIIa; [9]): 355; GP IIb/IIIa (mean) log fluorescence intensity (GP IIb/IIIa; [10]): 314; GP IIb/IIIa (peak) log fluorescence intensity (GP IIb/IIIa; [10]): 264; GP IIb/IIIa (mean) log fluorescence intensity (GP IIb/IIIa; [11]): 277; GP IIb/IIIa (peak) log fluorescence intensity (GP IIb/IIIa; [11]): 268; GP IIb/IIIa (mean) log fluorescence intensity (GP IIb/IIIa; [12]): 219; GP IIb/IIIa (peak) log fluorescence intensity (GP IIb/IIIa; [12]): 245; GP IIb/IIIa (mean) log fluorescence intensity (GP IIb/IIIa; [13]): 242; GP IIb/IIIa (peak) log fluorescence intensity (GP IIb/IIIa; [13]): 232; GPIIb/IIIa expression, NDMS compared with sertraline (FIG. 1) (GP IIb/IIIa; [7]): more effectively decreased the expression of GPIIb/IIIa; GPIIb/IIIa expression (FIG. 1), in words (GP IIb/IIIa; [7]): dose dependent decrease in the expression; GPIIb/IIIa expression (FIG. 7), in words (GP IIb/IIIa): striking decreases in expression; platelet aggregation in PRP (FIGS. 5 and 6), in words (platelets; PRP): decrease in platelet aggregation; CPIa-IIa (mean) log fluorescence intensity (CPIa-IIa): 42; CPIa-IIa (peak) log fluorescence intensity (CPIa-IIa): 40
